Key:
Acute Toxicity = settings: in vivo; mouse, intravenous injection
Method: (§1) Tested Animal: mice of the ddN-series, .male., 20 ± 1 experimental
(§2) Conditions: temperature of 24 ± 1° C., relative humidity of 65

mice of the ddN-series [1] = experiment: Analgesic test, Heat Stimulus Method (Hot Plate Method); format: in vivo, mouse; set-up: reference not given here; settings: hypodermic injection, comparative value, scale not given
Method: (§3) Results of comparative tests where the medicinal effects of compounds of this invention were compared with those of known compounds such as pentazocine and codeine phosphate by employing mice and guinea pigs as the test animals are shown in the following Tables I and II.
Heat Stimulus Method^2)
as §1, §2
^2) G. Woolfe and A. D. Mac Donald; Journal of Pharmacology and […]

mice of the ddN-series [2] = experiment: Analgesic test, Chemical Stimulus Method (Writhing Method); format: in vivo, mouse; set-up: scale not given here; settings: interabdominal injection, comparative value, scale not given
Method: as §3
Chemical Stimulus Method^1)
(interabdominal injection)
as §1, §2
^1) R. Koster, M. Anderson and E. J. De Beer, Federation Proceedings, […]

mice of the ddN-series [3] = experiment: Analgesic test, Pressure Stimulus Method; format: in vivo, mouse; settings: hypodermic injection, comparative value, pentazocine 1.0
Method: as §3
Pressure Stimulus Method^3)
R (hypodermic injection)
as §1, §2
^3) A. F. Green, P. A. Yound and E. I. Godfrey; British Journal of
Pharmacology and Chemotherapy, 6, 572 (1951)

guinea pigs [4] = experiment: Antitussive effect, Chemical Stimulus Method (SO2 gas); format: in vivo, guinea pig; settings: for ED50: Cavia porcellus, sc, 0.5 h, read-out: ED50, Chemical Stimulus Method (antitussive); for Effect Ratio to Codeine Phosphate, Chemical Stimulus Method: codeine phosphate = 100
Source text: as §3
(§4) Comparison of Antitusive Effects
2) Takagi et al modification [Journal of Pharmaceutical Society of Japan,
80, 1497 (1960)] of the test method of H. Friebel, C. Reichle and A. V.
Gravenitz [Archiv Fur experimentalle Phathologie und Pharmakologie,
Naunyn-Schmiede-berg's, 224,384 (1955)], in which the test compound was
hypodermically injected into guinea pigs, 30 minutes after the injection
the quinea pigs were put into a desiccator filled with SO2 gas and
kept in the desiccator for 1 minute, then the guinea pigs were put into
another vessel and the degree of coughing was examined.

guinea pigs [5] = experiment: Antitussive effect, Mechanical Stimulus Method; format: in vivo, guinea pig; settings: for ED50: Cavia porcellus, swine hairs inserted into the trachea; for Effect Ratio to Codeine Phosphate, Mechanical Stimulus Method: codeine phosphate = 100
Source text: as §3, §4
Mechanical Stimulus Method^1)
1) Takagi et al modification [Journal of the Pharmaceutical Society of
Japan, 80, 1497 (1960)] of the test method of H. Konzett and E. Rothlin
[Experientia, 10, 472 (1954)], in which urethane was hypodermically
injected (15 mg/Kg) into guinea pigs and swine hairs were inserted into
the trachea to impart stimulus.

[6] = Hygroscopicity of the salt; format: physicochemical; settings: crystalline salt, cis-form
[7] = guinea pigs, hypodermic injection, SO2 gas, 1 minute, 30 minutes after injection

| SMILES | LD50 (Acute Toxicity) [mg/kg] | Heat Stimulus Method (Hot Plate Method) (mice of the ddN-series [1]) | Chemical Stimulus Method (Writhing Method) (mice of the ddN-series [2]) | Pressure Stimulus Method (mice of the ddN-series [3]) | other results |
| --- | --- | --- | --- | --- | --- |
| COc1ccc2c(c1)C1(C)CCN(CCc3ccccc3)CC(C2)C1 (stereo not shown) [R=CH3O, R1=CH3, R2=H, CH2R3=drawing 44, R4=H] | 48 | 2.0 | 1.5 | – | – |
| CC(C)=CCN1CCC2CC(Cc3ccccc32)C1 (stereo not shown) [R=H, R1=H, R2=H, CH2R3=drawing 40, R4=H] | 65 | 1.5 | 1.0 | 1.4 | – |
| COc1ccc2c(c1)C1(C)CCN(C)CC(C2)C1 (stereo not shown) [R=CH3O, R1=CH3, R2=H, CH2R3=CH3, R4=H] | 120 | 2.0 | 0.8 | – | – |
| COc1ccc2c3c1O[C@H]1[C@@H](O)C=C[C@H]4[C@@H](C2)N(C)CC[C@@]341 [codeine phosphate, reference compound] | – | – | – | – | ED50 (guinea pigs [4]; [7]): 13.3 mg/kg; ED50 (guinea pigs [5]): 14.5 mg/kg |
| CN1CCC2CC(Cc3ccccc32)C1 (stereo not shown) [R=H, R1=H, R2=H, CH2R3=CH3, R4=H, 4-methyl-2,3,4,5,6,7-hexahydro-1,6-methano-1H-4-benzazonine] | 20 | 0.6 | 2.5 | – | – |
| COc1ccc2c3c1O[C@H]1[C@@H](O)CC[C@H]4[C@@H](C2)N(C)CC[C@@]341 [dihydrocodeine phosphate, reference compound] | – | – | – | – | ED50 (guinea pigs [4]): 2.65 mg/kg; ED50 (guinea pigs [5]): 4.65 mg/kg |
| CC1C2Cc3ccccc3C1(C)CCN(C)C2 (stereo not shown) [Example 23] | – | – | – | – | hygroscopicity [6]: hygroscopic |
| CN1CCC2(C)CC(Cc3ccc(O)cc32)C1 (stereo not shown) [R=HO, R1=CH3, R2=H, CH2R3=CH3, R4=H, 1,4-dimethyl-10-hydroxy-2,3,4,5,6,7-hexahydro-1,6-methano-1H-4-benzazonine] | 75 | 2.0 | 1.5 | – | – |
| COc1ccc2c(c1)C1(C)CCN(C)CC(C2O)C1C (stereo not shown) [Example 12] | – | – | – | – | hygroscopicity [6]: hygroscopic |
| CC(C)=CCN1CCC2(C)CC(C1)C(O)c1ccccc12 (stereo not shown) [R=H, R1=CH3, R2=H, CH2R3=drawing 38, R4=OH] | 25 | 1.5 | 1.5 | 1.6 | – |
| CC(C)CCN1CCC2(C)c3cc(O)ccc3CC(C1)C2C (stereo not shown) [Example 89] | – | – | – | – | hygroscopicity [6]: being hygro- |
| C=CCN1CCC2(C)CC(C1)C(O)c1ccccc12 (stereo not shown) [R=H, R1=CH3, R2=H, CH2R3=CH2CHCH2, R4=OH] | 55 | 1.5 | 1.8 | 2.0 | – |
| CCN1CCC2(C)c3cc(OC)ccc3CC(C1)C2C (stereo not shown) | 100 | 2.0 | 0.8 | – | – |
| COc1ccc2c(c1)C1(C)CCN(CCc3ccccc3)CC(C1)C2O (stereo not shown) | 45 | 2.2 | 1.6 | 1.8 | – |
| C=CCN1CCC2CC(Cc3ccccc32)C1 (stereo not shown) [R=H, R1=H, R2=H, CH2R3=CH2CHCH2, R4=H, 4-allyl-2,3,4,5,6,7-hexahydro-1,6-methano-1H-4-benzazonine] | 45 | 5.0 | 1.4 | 1.5 | ED50 (guinea pigs [4]; [7]): 12.7 mg/kg; Effect Ratio to Codeine Phosphate, Chemical Stimulus Method (guinea pigs [4]; guinea pigs, SO2 gas): 104.7; ED50 (guinea pigs [5]): 7.42 mg/kg; Effect Ratio to Codeine Phosphate, Mechanical Stimulus Method (guinea pigs [5]): 195.0 |
| CN1CCC2(C)CC(C1)C(O)c1ccccc12 (stereo not shown) [R=H, R1=CH3, R2=H, CH2R3=CH3, R4=OH, 1,4-dimethyl-2,3,4,5,6,7-hexahydro-1,6-methano-1H-4-benzazonin-7-ol] | 70 | 1.4 | 0.7 | 1.2 | ED50 (guinea pigs [4]; [7]): 1.64 mg/kg; Effect Ratio to Codeine Phosphate, Chemical Stimulus Method (guinea pigs [4]; guinea pigs, SO2 gas): 800.7; ED50 (guinea pigs [5]): 4.42 mg/kg; Effect Ratio to Codeine Phosphate, Mechanical Stimulus Method (guinea pigs [5]): 326.9 |
| CC1C2Cc3ccc(O)cc3C1(C)CCN(CCc1ccccc1)C2 (stereo not shown) [Example 87] | – | – | – | – | hygroscopicity [6]: being hygro- |
| c1ccc(CN2CCC3CC(Cc4ccccc43)C2)cc1 (stereo not shown) [R=H, R1=H, R2=H, CH2R3=drawing 42, R4=H] | 120 | 3.0 | 1.0 | – | – |
